Measured values from ChEMBL document CHEMBL5579845, “Ophiobolin A derivatives with enhanced activities under tumor-relevant acidic conditions” (2024).

What was measured:
[1] = Antiproliferative activity against human GBM43 cells cultured under pH 6.5 assessed as reduction in cell viability by measuring growth inhibition incubated for 48 hrs by MTT assay; assay type: functional
[2] = Antiproliferative activity against human GBM43 cells cultured under pH 7.5 assessed as reduction in cell viability by measuring growth inhibition incubated for 48 hrs by MTT assay; assay type: functional
[3] = Potency index, ratio of ophiobolin A GI50 to test compound GI50 for antiproliferative activity against human GBM43 cells cultured under pH 6.5 assessed as reduction in cell viability by measuring growth inhibition incubated for 48 hrs by MTT assay; assay type: functional
U-87 MG = test: Antitumor activity against human U-87 MG cells stably expressing luciferase reporter xenografted in female athymic nude mouse assessed as median survival time at 24 mg/kg, iv administered for six times starting from day 12 post tumor development and measured upto 60 days post tumor development; assay type: functional, U-87MG ATCC; conditions: time <= 48 day

SMILES | GI50 [1] [nM] | GI50 [2] [nM] | RatioGI50 [3] | MST (U-87 MG) [days]
CO[C@H]1O[C@@]2(OC)C[C@@](C)(O)[C@H]3C[C@@]4(C)CC[C@@]5(O[C@@H](C=C(C)C)C[C@@H]5C)[C@@H]4C/C=C/1[C@H]32 | 500 | – | – | –
CC(C)=C[C@H]1C[C@H](C)[C@]2(CC[C@]3(C)C[C@H]4[C@H](C(=O)C[C@@]4(C)O)/C(=C/OCCCl)[C@H](O)C[C@H]32)O1 | 650 | 1070 | – | –
CC(C)=C[C@H]1C[C@H](C)[C@]2(CC[C@]3(C)C[C@H]4[C@H](C(=O)C[C@@]4(C)O)/C(C(O)OCCBr)=C\C[C@H]32)O1 (some centres not stated) | 150 | 270 | 2 | –
CC(C)=C[C@H]1C[C@H](C)[C@]2(CC[C@]3(C)C[C@H]4[C@H](C(=O)C[C@@]4(C)O)/C(C(O)OC(C)C)=C\C[C@H]32)O1 (some centres not stated) | 340 | – | – | –
COCCOC(O)/C1=C/C[C@@H]2[C@](C)(CC[C@@]23O[C@@H](C=C(C)C)C[C@@H]3C)C[C@H]2[C@@H]1C(=O)C[C@@]2(C)O (some centres not stated) | 1090 | – | – | –
CC(C)=C[C@H]1C[C@H](C)[C@]2(CC[C@]3(C)C[C@H]4[C@H](C(=O)C[C@@]4(C)O)/C(C(O)OCCF)=C\C[C@H]32)O1 (some centres not stated) | 1700 | 2890 | – | –
CC(C)=C[C@H]1C[C@H](C)[C@]2(CC[C@]3(C)C[C@H]4[C@H](C(=O)C[C@@]4(C)O)/C(=C/OCCF)[C@H](O)C[C@H]32)O1 | 1500 | 2770 | – | –
CC(C)=C[C@H]1C[C@H](C)[C@]2(CC[C@]3(C)C[C@H]4[C@H](C(=O)C[C@@]4(C)O)/C(C(O)OCCCl)=C\C[C@H]32)O1 (some centres not stated) | 750 | 2770 | – | –
CC(C)=C[C@H]1C[C@H](C)[C@]2(CC[C@]3(C)C[C@H]4[C@H](C(=O)C[C@@]4(C)O)/C(=C/OCCBr)[C@H](O)C[C@H]32)O1 | 140 | 490 | 2 | –
CC(C)=C[C@H]1C[C@H](C)[C@]2(CC[C@]3(C)C[C@H]4[C@H](C(=O)C[C@@]4(C)O)/C(=C/OCC(F)(F)F)[C@H](O)C[C@H]32)O1 | 830 | – | – | –
CO[C@@H]1O[C@@]2(OC)C[C@@](C)(O)[C@H]3C[C@@]4(C)CC[C@@]5(O[C@@H](C=C(C)C)C[C@@H]5C)[C@@H]4C/C=C/1[C@H]32 | 1460 | – | – | –
COc1cccc2c1C(=O)c1c(O)c3c(c(O)c1C2=O)C[C@@](O)(/C(CO)=N/NC(=O)CCCCCN1C(=O)C=CC1=O)C[C@@H]3O[C@H]1C[C@H](N)[C@H](O)[C@H](C)O1 [ALDOXORUBICIN] | – | – | – | 62
CC(C)=C[C@H]1C[C@H](C)[C@]2(CC[C@]3(C)C[C@H]4[C@H](C(=O)C[C@@]4(C)O)/C(C=O)=C\C[C@H]32)O1 [OPHIOBOLIN A] | 290 | 220 | – | –
